Source: patent publication US11779597B2, “Method of treating Parkinson's and other neurodegenerative diseases” (Vector Vitale IP LLC, priority 2019, dated 2023)

Assays:
[1] = test system: normal human fibroblasts; test: Metabolic activity of cells (MTT assay); assay type: cell-based; conditions: 72 hours, control = 100% of living cells
Experimental: In vitro assessment of the effects of E2+^85Rbe on metabolic activity of normal human fibroblasts (MTT assay).
Proliferative and metabolic activity of cells was determined by the colorimetric method.
The metabolic activity of the cells (i.e., the number of living cells) was assessed by MTT staining.
24 hours after the last reagent, the cells were seeded at a concentration of 1×10^4 cells/well in wells of a 96-well plate in complete DMEM nutrient medium with 10% FBS and […]. The cells were cultured in a humidified atmosphere at 5% CO2 and 37° C. for 24 hours. After 24 hours, various doses of experimental substances were added to the respective wells. The cells were incubated at 37° C. and 5% CO2 for an additional 72 hours.
Upon completion of the incubation with the preparations, the proliferative and metabolic activity of the cells in the experiment was evaluated by the colorimetric method by staining MTT cells:
10 μl of the MTT solution (5 mg/ml of the dye in phosphate-buffered saline) was added to each well of the plate; the plate was incubated in a CO2 incubator at 37° C. for 3 hours. After that, the medium was removed from the wells, and the formed tetraformazan crystals were dissolved in 100 μl of dimethylsulfoxide.
When MTT was used, the results were evaluated using a multi-well spectrophotometer at an excitation wavelength of 540 nm. The percentage of viable cells was calculated by the formula: IR=(A 540(experiment)/A540(control))×100%.

[2] = test system: human T-lymphocytes (CD3+); conditions: cited from earlier work
[3] = according to the published data

Cc1ccc(S(=O)(=O)[N-]c2ccccc2NC(=O)c2ccccc2)cc1.[Rb+] [E2+Rb reference drug]
Metabolic activity of cells, % ([1]; 2.5 μg/ml): 128.2 ± 8.3% | Metabolic activity of cells, % ([1]; 5 μg/ml): 103.4 ± 9.3% | Metabolic activity of cells, % ([1]; 10 μg/ml): 104.6 ± 14.2% | Metabolic activity of cells, % ([1]; 20 μg/ml): 96.8 ± 9.8% | Metabolic activity of cells, % ([1]; 38 μg/ml): 98.8 ± 7.1% | Metabolic activity of cells, % ([1]; 75 μg/ml): 97.7 ± 7.5% | Metabolic activity of cells, % ([1]; 150 μg/ml): 99.3 ± 3.2%

[Cl-].[Rb+] [rubidium chloride]
proliferation of both resting and activated lymphocytes [2, 3]: inhibitory effect

[Cl-].[Cl-].[Zn+2] [zinc chloride]
proliferation of unstimulated T-cells [2, 3]: has no effect | costimulatory effect on T-cell proliferation ([2]; published data): costimulatory effects
